We go through three molecules from PubChem BioAssay AID1259407 (Chemical Carcinogenesis Research Information System (CCRIS), 2018).

Activity calls are given as the source filed them. The rule behind the calls is not given here.

The test system of the data set is CCRIS mutagenicity, Ames/micronucleus/aberration tests. Nature of the data set: CCRIS mutagenicity studies.
The mark [1] stands for this setting: Test System: AMES SALMONELLA TYPHIMURIUM, Strain/Indicator: TA100, Metabolic Activation: NONE, Method: PREINCUBATION

As to `C[Si](C)(C)CN(N=O)C(N)=O`, the mutagenic call is, setting by setting: under setting [1], “active; positive”; (Test System: CHINESE HAMSTER V-79, Strain/Indicator: V-79/OUABAIN, Metabolic Activation: NONE) “active; positive”; (Test System: E. COLI, Strain/Indicator: H/R30R, Metabolic Activation: NONE, Method: PREINCUBATION) “active; positive”; (Test System: E. COLI, Strain/Indicator: HS30R UVRA, Metabolic Activation: NONE, Method: PREINCUBATION) “active; positive”; (Test System: E. COLI, Strain/Indicator: NG30 RECA, Metabolic Activation: NONE, Method: PREINCUBATION) “active; positive”; (Test System: E. COLI, Strain/Indicator: O16 POLA, Metabolic Activation: NONE, Method: PREINCUBATION) “active; positive”.

With `C=CC[N+](C)(C)CC=C`, the mutagenic call is, setting by setting: (Test System: AMES SALMONELLA TYPHIMURIUM, Strain/Indicator: TA98, Metabolic Activation: NONE, Method: PREINCUBATION) “inactive; negative”; (Test System: AMES SALMONELLA TYPHIMURIUM, Strain/Indicator: TA98, Metabolic Activation: RAT LIVER S-9, PHENOBARBITAL AND BETA-NAPHTHOFLAVONE, Method: PREINCUBATION) “inactive; negative”; under setting [1], “inactive; negative”; (Test System: AMES SALMONELLA TYPHIMURIUM, Strain/Indicator: TA100, Metabolic Activation: RAT LIVER S-9, PHENOBARBITAL AND BETA-NAPHTHOFLAVONE, Method: PREINCUBATION) “inactive; negative”; (Test System: AMES SALMONELLA TYPHIMURIUM, Strain/Indicator: TA1535, Metabolic Activation: NONE, Method: PREINCUBATION) “inactive; negative”; (Test System: AMES SALMONELLA TYPHIMURIUM, Strain/Indicator: TA1535, Metabolic Activation: RAT LIVER S-9, PHENOBARBITAL AND BETA-NAPHTHOFLAVONE, Method: PREINCUBATION) “inactive; negative”. For the same molecule, the mutagenic call is “inactive; negative” (Test System: AMES SALMONELLA TYPHIMURIUM, Strain/Indicator: TA1537, Metabolic Activation: NONE, Method: PREINCUBATION); “inactive; negative” (Test System: AMES SALMONELLA TYPHIMURIUM, Strain/Indicator: TA1537, Metabolic Activation: RAT LIVER S-9, PHENOBARBITAL AND BETA-NAPHTHOFLAVONE, Method: PREINCUBATION); “inactive; negative” (Test System: E.COLI, Strain/Indicator: WP2UVRA/PKM101, Metabolic Activation: NONE, Method: PREINCUBATION); “inactive; negative” (Test System: E.COLI, Strain/Indicator: WP2UVRA/PKM101, Metabolic Activation: RAT LIVER S-9, PHENOBARBITAL AND BETA-NAPHTHOFLAVONE, Method: PREINCUBATION).

Take `O=c1c2c(O)cccc2oc2cc3c(c(O)c12)[C@@H]1C=CO[C@@H]1O3`: the mutagenic call is “inactive; negative” (Test System: AMES SALMONELLA TYPHIMURIUM, Strain/Indicator: TA98, Metabolic Activation: RAT, LIVER, S-9, PHENOBARBITAL, Method: STANDARD PLATE) and “inactive; negative” (Test System: AMES SALMONELLA TYPHIMURIUM, Strain/Indicator: TA100, Metabolic Activation: RAT, LIVER, S-9, PHENOBARBITAL, Method: STANDARD PLATE).
